From patent US6759520B1, “Chimeric analgesic peptides” (priority 1999, dated 2004)

Key:
[1] = test system: Sprague Dawley rats; assay: Tail flick test after intrathecal administration; format: in vivo, rat; conditions: for change in analgesia, antagonist alone: control experiment, p>0.05
Protocol: (§1) ESP7 was tested clinically in rats to determine analgesic effect and tolerance. The classical tail flick test was used to measure pain response and thermal pain was mimicked using a heat source. This system was controlled using standard opioids. The drug was administered with cyclodextran to increase solubility of the peptide in an aqueous solution.
Adult male Sprague Dawley rats (200-250 g) were implanted with chronic indwelling intrathecal catheters using a modified protocol of Yaksh and Rudy, Physiol. Behav., 17: 1031-1036 (1976). […] The rats were anesthetized throughout the surgery with 5.0% isoflurane. The catheter was inserted through the alanto-occipital membrane and into the intrathecal space using a guide wire. Sutures were used to secure the placement of the catheter. The rats were allowed to recover from surgery for 3-4 days and any rats with neurological impairment were not used for analgesic measurements. Rats were housed separately in a 12 hr light-dark cycle with free access to food and water. During their recovery from surgery, rats were habituated to the laboratory environment and analgesic testing apparatus.
For measurement of the thermal anti-nociceptive properties of the peptides of interest, the tail flick test was employed. Rats were first habituated to the tail flick chamber. During testing, the rats were placed in the chamber and a light source, which generated heat, was directed at their tail. The latency to remove the tail was recorded. The baseline latency was approximately 3.5 sec and the cutoff latency was 10 sec to avoid tissue damage. Three measurements were made at each pre- and post-treatment time point and the results were averaged. Responses were expressed as % maximum possible effect: […]
Rats were given doses of 1.0 μg (FIG. 5), 0.2 μg (FIG. 6), and 0.05 μg (FIG. 7) of ESP7. The desired concentration of the compound (in 10 μl) was injected into the catheter followed by 10 μl saline flush to fill the dead volume. ESP7 was combined with two molecules of cyclodextrin (ESP7+2CD) to increase solubility. […]

[2] = biological target: T1, μ receptor (Rattus norvegicus, UniProt P33535); assay: μ receptor binding assay, [3H]DAMGO competition, crude rat brain plasma membranes
T1 construct: frozen rat brains (−80° C.) were homogenized in 40 volumes of standard Tris buffer; from tissue; host or cells: rat brain (crude plasma membranes)
Protocol: For binding assays to opioid receptors, frozen rat brains (−80° C.) were homogenized in 40 volumes of standard Tris buffer (50 mM Tris HCl (pH 7.4), 0.2 mg/ml BSA, 2.5 mM EDTA, 40 μg/ml bacitracin, 30 μg/ml bestatin and 5 mM MgCl2) and centrifuged at 15,000×g for 20 minutes. 100 mM NaCl was added to the buffer, in order to remove endogenous ligands, and the centrifugation was repeated. After a wash with standard buffer, the membrane preparation was finally resuspended in 10 volumes of incubation buffer (standard buffer with 4 μg/ml leupeptin and 2 μg/ml chymostatin). […] The brain homogenates were used on the day of preparation.
Binding assays for the μ receptor were performed at 4° C. for 90 minutes, as described in Zadina et al., Life Sci, 55: 461-466 (1994). […] After incubation the samples were filtered on a Brandell-Harvester using an appropriate GF/B filter soaked in 50 mM Tris HCl (pH 7.4) and 0.5% PEI. Scintillation fluid was added to the filters in order to solubilize the membranes, and a beta-counter was used to quantify radioactivity.

[3] = biological target: T2, NK1 receptor (Rattus norvegicus, UniProt P14600); assay: SP (NK1) receptor binding assay, [125I]BH-SP competition, crude rat brain plasma membranes
T2 construct: The same procedure was followed for the SP receptor except the wash with NaCl was eliminated; from tissue; host or cells: rat brain (crude plasma membranes)

[4] = test system: Sprague Dawley rats; assay: Tail flick test after intracerebroventricular administration; format: in vivo, rat; conditions: 1.0 μg intracerebroventricular; data not shown
Protocol: as §1
Adult male Sprague Dawley rats weighing 200-250 g were used. Before surgery, the rats were anesthesized with 0.2-0.3 mL of xylazine (10%) and ketamine (90%). Rats were positioned in a stereotaxic apparatus and the bregma was located. To reach the lateral ventricle, a hole was drilled 0.8 mm caudal and 1.4-1.5 mm left or right of the bregma. The catheter was inserted 4.5 mm deep into the brain and 4.0 cm of polyethylene tubing was connected to the end to the catheter. Screws and dental cement were used to secure the catheter in place. After suturing the skin, the rats were allowed to recover from surgery for 4-5 days. Each rat was housed separately in a 12 hr light-dark cycle with free access to food and water. Rats with any neurological problems were not used in the analgesic testing.
The tail flick assay was used to measure analgesia as described above in Example 2.1. Briefly, the rats were first habituated to the tail flick chamber. […] The latency to remove the tail was recorded. […] Responses were expressed as % maximum possible effect (MPE): [formula]

[5] = test system: rats; assay: Tail flick test after intraperitoneal administration; format: in vivo, rat; conditions: 1 mg intraperitoneal
Protocol: as §1
ESP7 was administered intraperitoneally in order to assess the effectiveness of ESP7 systemically. The tail flick assay was used to measure analgesia as described above in Example 2.1. Briefly, the rats were first habituated to the tail flick chamber. During testing, the rats were placed in the chamber and a light source, which generated heat, was directed at their tail. The latency to remove the tail was recorded. The baseline latency was approximately 3.5 sec and the cutoff latency was 10 sec to avoid tissue damage. Three measurements were made at each pre- and post-treatment time point and the results were averaged. Responses were expressed as % maximum possible effect (MPE): [formula]

T2 sequence (P14600 whole entry): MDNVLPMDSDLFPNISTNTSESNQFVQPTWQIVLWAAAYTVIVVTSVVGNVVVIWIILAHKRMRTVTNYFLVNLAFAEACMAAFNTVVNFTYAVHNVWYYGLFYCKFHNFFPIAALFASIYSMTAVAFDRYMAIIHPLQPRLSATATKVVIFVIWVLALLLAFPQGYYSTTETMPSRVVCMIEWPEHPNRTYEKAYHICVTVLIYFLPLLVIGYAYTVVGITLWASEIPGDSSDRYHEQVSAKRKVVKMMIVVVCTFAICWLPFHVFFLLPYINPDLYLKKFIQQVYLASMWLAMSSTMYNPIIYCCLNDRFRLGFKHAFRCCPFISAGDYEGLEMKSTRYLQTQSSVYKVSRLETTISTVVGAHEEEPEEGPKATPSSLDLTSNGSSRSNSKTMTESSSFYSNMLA
T1 sequence (P33535 whole entry): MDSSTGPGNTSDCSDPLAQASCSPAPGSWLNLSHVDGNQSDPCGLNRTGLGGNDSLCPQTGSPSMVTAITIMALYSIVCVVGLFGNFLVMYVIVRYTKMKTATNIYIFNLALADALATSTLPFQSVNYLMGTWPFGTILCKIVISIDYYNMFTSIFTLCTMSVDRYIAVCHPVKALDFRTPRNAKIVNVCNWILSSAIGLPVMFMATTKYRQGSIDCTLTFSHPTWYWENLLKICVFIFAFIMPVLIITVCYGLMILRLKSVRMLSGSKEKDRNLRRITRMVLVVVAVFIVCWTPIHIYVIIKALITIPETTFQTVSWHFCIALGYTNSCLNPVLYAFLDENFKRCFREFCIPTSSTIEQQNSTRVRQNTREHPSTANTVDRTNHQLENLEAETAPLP

Compound	change in analgesia, antagonist alone [1]	hyperalgesia when naltrexone is given with ESP7+2CD ([1]; naltrexone with 0.2 μg and 1.0 μg ESP7+2CD intrathecal)	Kd [2]	Kd [3]	analgesia (tail flick, % MPE) [4]	analgesia (tail flick, % MPE) [5]
COc1ccccc1CC(=N)N1C[C@@H]2C(=O)CCC(c3ccccc3)(c3ccccc3)[C@@H]2C1 [RP67580]	no effect on the level of analgesia					
O=C1CC[C@@]2(O)[C@H]3Cc4ccc(O)c5c4[C@@]2(CCN3CC2CC2)[C@H]1O5 [naltrexone]	produced no change in analgesia	produced some hyperalgesia				
H-YPFFGLM-NH2 [ESP7, Tyr-Pro-Phe-Phe-Gly-Leu-Met-NH2]			~300 nM	~200 nM	produced analgesia	produced analgesia as seen with intrathecal administration
